# Test results as given in patent US10294202B2, “Pyrrolidinones as herbicides” (FMC Corporation, priority 2013, dated 2019).
# What was measured:
# barnyardgrass [1] = assay: Test A pre-/postemergence herbicide test; assay type: in vivo, Echinochloa crus-galli
# Procedure, shortened: (§1)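 Visual injury ratings, 0 = no effect, 100 = complete control, taken ~10 days after treatment against untreated greenhouse controls. Preemergence: directed soil spray onto seeded loam/sand pots. Postemergence: spray onto plants at one- to two-leaf stage, 2–10 cm tall.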
# kochia = assay: Test A pre-/postemergence herbicide test; assay type: in vivo, Kochia scoparia
# Procedure, shortened: as §1
# ragweed = assay: Test A pre-/postemergence herbicide test; assay type: in vivo, Ambrosia elatior
# Procedure, shortened: as §1
# ryegrass, Italian = assay: Test A pre-/postemergence herbicide test; assay type: in vivo, Lolium multiflorum
# Procedure, shortened: as §1
# giant foxtail = assay: Test A pre-/postemergence herbicide test; assay type: in vivo, Setaria faberii
# Procedure, shortened: as §1
# pigweed = assay: Test A pre-/postemergence herbicide test; assay type: in vivo, Amaranthus retroflexus
# Procedure, shortened: as §1
# wheat = assay: Test A pre-/postemergence herbicide test; assay type: in vivo, Triticum aestivum; details: Postemergence
# Procedure, shortened: as §1
# corn = assay: Test A pre-/postemergence herbicide test; assay type: in vivo, Zea mays; details: Postemergence
# Procedure, shortened: as §1
# blackgrass = assay: Test A postemergence herbicide test; assay type: in vivo, Alopecurus myosuroides
# Procedure, shortened: (§2)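 Ratings compare treated with untreated plants roughly 10 days after a postemergence application made at the one- to two-leaf stage. Scoring uses 0–100, where 0 means no effect and 100 complete control.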
# galium = assay: Test A postemergence herbicide test; assay type: in vivo, Galium aparine
# Procedure, shortened: as §2
# rice = assay: Test B flooded paddy test; assay type: in vivo, Oryza sativa; details: 500 g ai/ha, Flood; scale of 0 to 100 where 0 is no effect and 100 is complete control
# Procedure, shortened: (§3)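 First, plants reach the 2-leaf stage; next, pots are flooded to 3 cm and compound is delivered into the water; finally, after 13 to 15 greenhouse days at constant depth, injury is graded visually from 0 to 100 against controls.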
# sedge, umbrella = assay: Test B flooded paddy test; assay type: in vivo, Cyperus difformis; details: 500 g ai/ha, Flood; scale of 0 to 100 where 0 is no effect and 100 is complete control
# Procedure, shortened: as §3
# ducksalad = assay: Test B flooded paddy test; assay type: in vivo, Heteranthera limosa; details: 500 g ai/ha, Flood; scale of 0 to 100 where 0 is no effect and 100 is complete control
# Procedure, shortened: as §3
# barnyardgrass [2] = assay: Test B flooded paddy test; assay type: in vivo, Echinochloa crus-galli; details: 500 g ai/ha, Flood; scale of 0 to 100 where 0 is no effect and 100 is complete control
# Procedure, shortened: as §3
# [3] = Postemergence, 125 g ai/ha, visual rating on 0 to 100 scale (0 no effect, 100 complete control), approx. 10 days
# [4] = Postemergence, 500 g ai/ha, 0 to 100 scale (0 no effect, 100 complete control)
# [5] = Preemergence, 125 g ai/ha, 0 to 100 scale where 0 is no effect and 100 is complete control
# [6] = preemergence, 500 g ai/ha, 0 to 100 scale, 0 is no effect and 100 is complete control
# [7] = Preemergence, 500 g ai/ha, visual rating on 0 to 100 scale (0 no effect, 100 complete control)
# [8] = 125 g ai/ha, visual rating on 0 to 100 scale (0 no effect, 100 complete control), approx. 10 days
# [9] = 500 g ai/ha, 0 to 100 scale (0 no effect, 100 complete control)
SMILES,"Plant response rating, Barnyardgrass (barnyardgrass [1]; [3])","Plant response rating, Barnyardgrass (barnyardgrass [1]; [4])","Plant response rating, Barnyardgrass (barnyardgrass [1]; [5])","Plant response rating, Kochia (kochia; [3])","Plant response rating, Kochia (kochia; [4])","Plant response rating, Kochia (kochia; [5])","Plant response rating, Ragweed (ragweed; [3])","Plant response rating, Ragweed (ragweed; [4])","Plant response rating, Ragweed (ragweed; [5])","Plant response rating, Ryegrass, Italian (ryegrass, Italian; [3])","Plant response rating, Ryegrass, Italian (ryegrass, Italian; [4])","Plant response rating, Ryegrass, Italian (ryegrass, Italian; [5])","Ryegrass, Italian plant response rating (ryegrass, Italian; [7])","Plant response rating, Foxtail, Giant (giant foxtail; [3])","Plant response rating, Foxtail, Giant (giant foxtail; [4])","Plant response rating, Foxtail, Giant (giant foxtail; [5])","Plant response rating, Pigweed (pigweed; [3])","Plant response rating, Pigweed (pigweed; [4])","Plant response rating, Pigweed (pigweed; [5])","Plant response rating, Wheat (wheat; [8])",further results
CSc1cccc(C2CNC(=O)C2C(=O)Nc2ccccc2Cl)c1 (stereo not drawn) [Compound 291],40,60,20,0,0,20,0,0,0,0,0,0,30,20,50,20,0,0,0,0,"Plant response rating, Barnyardgrass (barnyardgrass [1]; [6]): 60; Plant response rating, Kochia (kochia; [6]): 20; Plant response rating, Ragweed (ragweed; [6]): 0; Plant response rating, Foxtail, Giant (giant foxtail; [6]): 80; Plant response rating, Pigweed (pigweed; [6]): 0; Plant response rating, Wheat (wheat; [9]): 0; Plant response rating, Corn (corn; [8]): 0; Plant response rating, Corn (corn; [9]): 0; Plant response rating, Blackgrass (blackgrass; [8]): 0; Plant response rating, Blackgrass (blackgrass; [9]): 0; Plant response rating, Galium (galium; [8]): 20; Plant response rating, Galium (galium; [9]): 0; Plant response rating, Rice (rice): 20; Plant response rating, Sedge, Umbrella (sedge, umbrella): 0; Plant response rating, Ducksalad (ducksalad): 0; Plant response rating, Barnyardgrass (barnyardgrass [2]): 0"
O=C1NCC(c2ccc(Cl)s2)C1C(=O)Nc1ccccc1F (stereo not drawn) [Compound 292],50,70,70,0,0,30,0,0,0,0,0,0,0,50,60,50,0,0,0,0,"Plant response rating, Barnyardgrass (barnyardgrass [1]; [6]): 80; Plant response rating, Kochia (kochia; [6]): 80; Plant response rating, Ragweed (ragweed; [6]): 0; Plant response rating, Foxtail, Giant (giant foxtail; [6]): 60; Plant response rating, Pigweed (pigweed; [6]): 0; Plant response rating, Wheat (wheat; [9]): 0; Plant response rating, Corn (corn; [8]): 0; Plant response rating, Corn (corn; [9]): 0; Plant response rating, Blackgrass (blackgrass; [8]): 0; Plant response rating, Blackgrass (blackgrass; [9]): 0; Plant response rating, Galium (galium; [8]): 10; Plant response rating, Galium (galium; [9]): 20; Plant response rating, Rice (rice): 0; Plant response rating, Sedge, Umbrella (sedge, umbrella): 0; Plant response rating, Ducksalad (ducksalad): 100; Plant response rating, Barnyardgrass (barnyardgrass [2]): 50"
O=C1NCC(c2cnn(CC(F)(F)F)c2)C1C(=O)Nc1ccccc1F (stereo not drawn) [Compound 298],0,0,0,0,0,0,0,0,0,0,0,0,0,0,0,0,0,0,0,0,"Plant response rating, Barnyardgrass (barnyardgrass [1]; [6]): 0; Plant response rating, Kochia (kochia; [6]): 0; Plant response rating, Ragweed (ragweed; [6]): 0; Plant response rating, Foxtail, Giant (giant foxtail; [6]): 0; Plant response rating, Pigweed (pigweed; [6]): 0; Plant response rating, Wheat (wheat; [9]): 0; Plant response rating, Corn (corn; [8]): 0; Plant response rating, Corn (corn; [9]): 0; Plant response rating, Blackgrass (blackgrass; [8]): 0; Plant response rating, Blackgrass (blackgrass; [9]): 0; Plant response rating, Galium (galium; [8]): 0; Plant response rating, Galium (galium; [9]): 0; Plant response rating, Rice (rice): 0; Plant response rating, Sedge, Umbrella (sedge, umbrella): 0; Plant response rating, Ducksalad (ducksalad): 0; Plant response rating, Barnyardgrass (barnyardgrass [2]): 0"
O=C1NCC(c2cnn(CC(F)(F)F)c2)C1C(=O)Nc1ccccc1C(F)(F)F (stereo not drawn) [Compound 300],0,0,0,0,0,0,0,0,0,0,0,0,0,0,0,0,0,0,0,0,"Plant response rating, Barnyardgrass (barnyardgrass [1]; [6]): 0; Plant response rating, Kochia (kochia; [6]): 0; Plant response rating, Ragweed (ragweed; [6]): 0; Plant response rating, Foxtail, Giant (giant foxtail; [6]): 0; Plant response rating, Pigweed (pigweed; [6]): 0; Plant response rating, Wheat (wheat; [9]): 0; Plant response rating, Corn (corn; [8]): 0; Plant response rating, Corn (corn; [9]): 0; Plant response rating, Blackgrass (blackgrass; [8]): 0; Plant response rating, Blackgrass (blackgrass; [9]): 0; Plant response rating, Galium (galium; [8]): 0; Plant response rating, Galium (galium; [9]): 0; Plant response rating, Rice (rice): 0; Plant response rating, Sedge, Umbrella (sedge, umbrella): 0; Plant response rating, Ducksalad (ducksalad): 0; Plant response rating, Barnyardgrass (barnyardgrass [2]): 0"
O=C1NCC(c2cccc(Br)c2)C1C(=O)Nc1ccccc1Cl (stereo not drawn) [Compound 311],60,80,70,0,0,0,0,0,0,0,0,0,0,60,70,80,0,0,0,0,"Barnyardgrass plant response rating (barnyardgrass [1]; [7]): 80; Kochia plant response rating (kochia; [7]): 0; Ragweed plant response rating (ragweed; [7]): 0; Foxtail, Giant plant response rating (giant foxtail; [7]): 90; Pigweed plant response rating (pigweed; [7]): 0; Plant response rating, Wheat (wheat; [9]): 0; Plant response rating, Corn (corn; [8]): 0; Plant response rating, Corn (corn; [9]): 0; Plant response rating, Blackgrass (blackgrass; [8]): 0; Plant response rating, Blackgrass (blackgrass; [9]): 30; Plant response rating, Galium (galium; [8]): 0; Plant response rating, Galium (galium; [9]): 0; Plant response rating, Rice (rice): 0; Plant response rating, Sedge, Umbrella (sedge, umbrella): 0; Plant response rating, Ducksalad (ducksalad): 98; Plant response rating, Barnyardgrass (barnyardgrass [2]): 50"
